Reference: ChEMBL document CHEMBL5543167, “Design, Synthesis, and Biological Evaluation of Novel EGFR PROTACs Targeting C797S Mutation” (J Med Chem, 2024)
Activity calls are given as the source filed them. The rule behind the calls is not given here.

Experiments:
[1] = Antiproliferative activity against human PC-9-TM cells harboring EGFR exon 19 deletion/T790M/[…] mutant assessed as inhibition of cell proliferation incubated for 72 hrs by CCK8 assay; format: functional, cell-based
[2] = target: Sodium-coupled neutral amino acid symporter 2 (Homo sapiens) (UniProt Q96QD8); assay: Induction of SLC38A2 degradation in human H1975-TM cells at 50 nM incubated for 24 hrs; format: cell-based
Sodium-coupled neutral amino acid symporter 2 (Homo sapiens), sequence (Q96QD8 whole entry): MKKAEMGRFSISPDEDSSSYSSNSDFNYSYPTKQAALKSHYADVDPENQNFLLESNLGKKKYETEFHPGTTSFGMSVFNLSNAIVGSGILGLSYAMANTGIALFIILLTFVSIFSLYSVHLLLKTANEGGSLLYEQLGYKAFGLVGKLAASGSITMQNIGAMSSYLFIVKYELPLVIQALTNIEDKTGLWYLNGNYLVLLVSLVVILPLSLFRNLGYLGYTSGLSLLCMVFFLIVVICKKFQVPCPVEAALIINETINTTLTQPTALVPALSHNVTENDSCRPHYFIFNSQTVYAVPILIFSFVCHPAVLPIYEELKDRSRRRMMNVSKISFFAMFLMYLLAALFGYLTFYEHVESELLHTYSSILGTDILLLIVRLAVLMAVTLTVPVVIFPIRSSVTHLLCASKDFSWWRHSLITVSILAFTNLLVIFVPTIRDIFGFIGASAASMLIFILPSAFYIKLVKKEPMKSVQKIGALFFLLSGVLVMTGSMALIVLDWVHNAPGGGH

[3] = Potency index, ratio of brigatinib IC50 to test compound IC50 for antiproliferative activity against human […] cells harboring EGFR L858R/T790M/C797S mutant assessed as inhibition of cell growth incubated for 72 hrs by CCK-8 assay; format: functional, H1975-TM
[4] = target: Epidermal growth factor receptor (Homo sapiens) (UniProt P00533); assay: Inhibition of EGFR signaling in human H1975-TM cells harboring EGFR L858R/T790M/C797S mutant assessed as reduction in EGFR phosphorylation by Western blot analysis; format: cell-based; settings: dose 1.2-300 nM
Epidermal growth factor receptor (Homo sapiens), sequence (P00533 whole entry): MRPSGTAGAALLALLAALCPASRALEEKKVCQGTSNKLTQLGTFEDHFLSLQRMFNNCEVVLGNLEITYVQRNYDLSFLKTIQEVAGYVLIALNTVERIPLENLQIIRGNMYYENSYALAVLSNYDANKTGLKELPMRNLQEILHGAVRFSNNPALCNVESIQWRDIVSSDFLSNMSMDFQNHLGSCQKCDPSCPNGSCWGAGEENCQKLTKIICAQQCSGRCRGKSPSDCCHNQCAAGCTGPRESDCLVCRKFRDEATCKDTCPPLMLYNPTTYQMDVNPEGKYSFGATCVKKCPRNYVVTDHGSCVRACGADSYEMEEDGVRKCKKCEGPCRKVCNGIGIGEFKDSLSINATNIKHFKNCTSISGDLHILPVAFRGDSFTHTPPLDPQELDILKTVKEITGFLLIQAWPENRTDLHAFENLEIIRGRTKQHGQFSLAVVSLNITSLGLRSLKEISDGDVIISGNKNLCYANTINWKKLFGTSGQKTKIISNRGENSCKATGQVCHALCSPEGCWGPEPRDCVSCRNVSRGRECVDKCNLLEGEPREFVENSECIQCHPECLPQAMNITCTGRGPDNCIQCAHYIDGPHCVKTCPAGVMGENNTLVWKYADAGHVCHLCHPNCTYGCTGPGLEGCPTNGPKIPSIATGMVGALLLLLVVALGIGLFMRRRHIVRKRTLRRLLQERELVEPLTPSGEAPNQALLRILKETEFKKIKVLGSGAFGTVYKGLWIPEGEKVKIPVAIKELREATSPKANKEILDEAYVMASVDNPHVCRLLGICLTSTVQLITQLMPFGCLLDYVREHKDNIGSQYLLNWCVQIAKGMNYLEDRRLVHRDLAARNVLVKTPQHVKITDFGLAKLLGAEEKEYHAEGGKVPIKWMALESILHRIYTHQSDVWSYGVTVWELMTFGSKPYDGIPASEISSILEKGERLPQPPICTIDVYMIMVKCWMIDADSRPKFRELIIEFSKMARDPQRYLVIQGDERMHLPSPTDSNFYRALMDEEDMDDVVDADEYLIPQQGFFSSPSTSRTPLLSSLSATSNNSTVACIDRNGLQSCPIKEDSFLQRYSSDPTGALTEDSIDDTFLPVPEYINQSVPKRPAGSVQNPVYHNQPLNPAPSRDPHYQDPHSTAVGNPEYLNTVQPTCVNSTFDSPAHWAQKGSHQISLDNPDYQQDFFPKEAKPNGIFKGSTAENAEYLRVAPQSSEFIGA

[5] = MRT (0 to infinity) in male Sprague-Dawley rat at 50 mg/kg, po measured after 24 hrs by LC-MS/MS analysis; format: ADME, organism-based; settings: in vivo
[6] = target: Aurora kinase B (Homo sapiens) (UniProt Q96GD4); assay: Induction of AURKB degradation in human H1975-TM cells at 50 nM incubated for 24 hrs; format: cell-based
Aurora kinase B (Homo sapiens), sequence (Q96GD4 whole entry): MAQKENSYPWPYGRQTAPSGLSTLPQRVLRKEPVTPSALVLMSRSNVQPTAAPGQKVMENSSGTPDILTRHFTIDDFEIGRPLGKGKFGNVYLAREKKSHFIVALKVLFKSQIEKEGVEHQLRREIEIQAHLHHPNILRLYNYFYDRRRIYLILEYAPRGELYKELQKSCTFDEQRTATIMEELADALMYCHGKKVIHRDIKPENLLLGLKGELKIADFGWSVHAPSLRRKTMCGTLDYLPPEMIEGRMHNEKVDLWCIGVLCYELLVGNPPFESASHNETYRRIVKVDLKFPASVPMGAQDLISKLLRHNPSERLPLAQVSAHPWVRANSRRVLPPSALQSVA

Mus musculus = assay: In vivo inhibition of EGFR signaling in BALB/c nude mouse xenografted with human […] cells assessed as reduction in EGFR phosphorylation at 25 to 100 mg/kg, po administered once daily for 31 days by Western blot analysis; format: functional, organism-based; settings: dose 25-100 mg/kg, time 31.0 day
[7] = test system: Protein cereblon/Epidermal growth factor receptor (Homo sapiens), P00533+Q96SW2 [L858R,T790M,C797S]; assay: PROTAC activity at CRBN/EGFR L858R/T790M/C797S mutant in human H1975-TM cells assessed as induction of EGFR degradation by measuring remaining activity at 33 nM incubated for 24 hrs by Western blot analysis (reference value: 100%); format: cell-based
[8] = AUC (0 to infinity) in male Sprague-Dawley rat at 50 mg/kg, po measured after 24 hrs by LC-MS/MS analysis; format: ADME, organism-based; settings: in vivo
[9] = Antitumor activity against human H1975-TM cells xenografted in BALB/c nude mouse assessed as tumor growth inhibition at 25 mg/kg, po administered once daily for 31 days relative to control; format: functional; settings: 744 h, time 31 day, read-out: TGI
[10] = target: Protein cereblon/Epidermal growth factor receptor (Homo sapiens, UniProt P00533+Q96SW2); assay: (§1) PROTAC activity at CRBN/EGFR exon 19 deletion mutant in human PC-9 cells assessed as induction of EGFR degradation incubated for 24 hrs by Western blot analysis; format: cell-based
[11] = test system: Protein cereblon/Epidermal growth factor receptor (Homo sapiens), P00533+Q96SW2 [UNDEFINED MUTATION]; assay: as §1; format: cell-based
Protein cereblon/Epidermal growth factor receptor (Homo sapiens), P00533+Q96SW2 [UNDEFINED MUTATION], sequence (P00533 whole entry, looked up, change not shown): as the sequence (P00533 whole entry) above
Protein cereblon/Epidermal growth factor receptor (Homo sapiens), P00533+Q96SW2 [UNDEFINED MUTATION], sequence (Q96SW2 whole entry, looked up, change not shown): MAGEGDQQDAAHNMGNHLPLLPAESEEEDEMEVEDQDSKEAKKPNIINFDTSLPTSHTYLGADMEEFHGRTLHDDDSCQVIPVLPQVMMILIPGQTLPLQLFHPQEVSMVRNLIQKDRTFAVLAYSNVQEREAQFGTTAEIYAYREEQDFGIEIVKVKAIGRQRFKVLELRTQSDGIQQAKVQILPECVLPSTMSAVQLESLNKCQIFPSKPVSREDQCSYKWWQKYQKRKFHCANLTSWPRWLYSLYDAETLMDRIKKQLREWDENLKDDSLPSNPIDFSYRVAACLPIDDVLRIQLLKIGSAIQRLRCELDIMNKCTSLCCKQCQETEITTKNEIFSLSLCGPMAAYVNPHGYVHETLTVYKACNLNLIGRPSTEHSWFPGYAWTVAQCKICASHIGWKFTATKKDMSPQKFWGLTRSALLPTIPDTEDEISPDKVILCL

[12] = Oral bioavailability in Sprague-Dawley rat at 50 mg/kg measured after 24 hrs by LC-MS/MS analysis; format: ADME, organism-based; settings: in vivo
[13] = AUC (0 to infinity) in male Sprague-Dawley rat at 5 mg/kg, iv measured after 24 hrs by LC-MS/MS analysis; format: ADME, organism-based; settings: in vivo
[14] = test system: Protein cereblon/Epidermal growth factor receptor (Homo sapiens), P00533+Q96SW2 [L858R,T790M,C797S]; assay: PROTAC activity at CRBN/EGFR L858R/T790M/C797S mutant in human H1975-TM cells assessed as induction of EGFR degradation by measuring remaining activity at 1.2 nM incubated for 24 hrs by Western blot analysis (reference value: 100%); format: cell-based
[15] = Half-life in male Sprague-Dawley rat at 50 mg/kg, po measured after 24 hrs by LC-MS/MS analysis; format: ADME, organism-based; settings: in vivo
[16] = Half-life in male Sprague-Dawley rat at 5 mg/kg, iv measured after 24 hrs by LC-MS/MS analysis; format: ADME, organism-based; settings: in vivo
[17] = Tmax in male Sprague-Dawley rat at 5 mg/kg, iv measured after 24 hrs by LC-MS/MS analysis; format: ADME, organism-based; settings: in vivo
[18] = test system: Protein cereblon/Epidermal growth factor receptor (Homo sapiens), P00533+Q96SW2 [L858R,T790M,C797S]; assay: PROTAC activity at CRBN/EGFR L858R/T790M/C797S mutant in human H1975-TM cells assessed as induction of EGFR degradation by measuring remaining activity at 100 nM preincubated for 24 hrs followed by compound washout and measured after 48 hrs by Western blot analysis (reference value: 100%); format: cell-based
[19] = test system: Protein cereblon/Epidermal growth factor receptor (Homo sapiens), P00533+Q96SW2 [L858R,T790M,C797S]; assay: PROTAC activity at CRBN/EGFR L858R/T790M/C797S mutant in human H1975-TM cells assessed as induction of EGFR degradation by measuring remaining activity at 50 nM preincubated with MLN4924 for 6 hrs followed by compound addition and measured after 24 hrs by Western blot analysis (reference value: 100%); format: cell-based
[20] = Antiproliferative activity against human HI975-TM cells harboring EGFR L858R/T790M/C797S mutant assessed as inhibition of cell growth incubated for 72 hrs by CCK-8 assay; format: functional, cell-based; settings: H1975-TM
[21] = test system: Protein cereblon/Epidermal growth factor receptor (Homo sapiens), P00533+Q96SW2 [L858R,T790M,C797S]; assay: PROTAC activity at CRBN/EGFR L858R/T790M/C797S mutant in human H1975-TM cells assessed as induction of EGFR degradation by measuring remaining activity at 100 nM incubated for 6 hrs by Western blot analysis (reference value: 100%); format: cell-based
[22] = target: Epidermal growth factor receptor (Homo sapiens) (UniProt P00533); assay: Inhibition of EGFR signaling in human H1975-TM cells harboring EGFR L858R/T790M/C797S mutant assessed as reduction in AKT activation by Western blot analysis; format: cell-based; settings: dose 1.2-300 nM
[23] = Cmax in male Sprague-Dawley rat at 5 mg/kg, iv measured after 24 hrs by LC-MS/MS analysis; format: ADME, organism-based; settings: in vivo
H1975-TM = assay: Antitumor activity against human H1975-TM cells xenografted in BALB/c nude mouse assessed as increase in tumor necrosis at 25 to 100 mg/kg, po administered once daily for 31 days by H&E staining based light microscopic analysis; format: functional, organism-based; settings: dose 25-100 mg/kg, time 31.0 day
[24] = test system: Protein cereblon/Epidermal growth factor receptor (Homo sapiens), P00533+Q96SW2 [L858R,T790M,C797S]; assay: PROTAC activity at CRBN/EGFR L858R/T790M/C797S mutant in human H1975-TM cells assessed as induction of EGFR degradation by measuring remaining activity at 50 nM incubated for 24 hrs by Western blot analysis (reference value: 100%); format: cell-based
[25] = target: Epidermal growth factor receptor (Homo sapiens, UniProt P00533, C797S/L858R/T790M); assay: Binding affinity to EGFR L858R/T790M/C797S mutant (unknown origin) assessed as dissociation constant incubated for 10 mins under dark condition by MST analysis
Epidermal growth factor receptor, sequence (P00533 25-1210 T790M/C797S/L858R limits assumed): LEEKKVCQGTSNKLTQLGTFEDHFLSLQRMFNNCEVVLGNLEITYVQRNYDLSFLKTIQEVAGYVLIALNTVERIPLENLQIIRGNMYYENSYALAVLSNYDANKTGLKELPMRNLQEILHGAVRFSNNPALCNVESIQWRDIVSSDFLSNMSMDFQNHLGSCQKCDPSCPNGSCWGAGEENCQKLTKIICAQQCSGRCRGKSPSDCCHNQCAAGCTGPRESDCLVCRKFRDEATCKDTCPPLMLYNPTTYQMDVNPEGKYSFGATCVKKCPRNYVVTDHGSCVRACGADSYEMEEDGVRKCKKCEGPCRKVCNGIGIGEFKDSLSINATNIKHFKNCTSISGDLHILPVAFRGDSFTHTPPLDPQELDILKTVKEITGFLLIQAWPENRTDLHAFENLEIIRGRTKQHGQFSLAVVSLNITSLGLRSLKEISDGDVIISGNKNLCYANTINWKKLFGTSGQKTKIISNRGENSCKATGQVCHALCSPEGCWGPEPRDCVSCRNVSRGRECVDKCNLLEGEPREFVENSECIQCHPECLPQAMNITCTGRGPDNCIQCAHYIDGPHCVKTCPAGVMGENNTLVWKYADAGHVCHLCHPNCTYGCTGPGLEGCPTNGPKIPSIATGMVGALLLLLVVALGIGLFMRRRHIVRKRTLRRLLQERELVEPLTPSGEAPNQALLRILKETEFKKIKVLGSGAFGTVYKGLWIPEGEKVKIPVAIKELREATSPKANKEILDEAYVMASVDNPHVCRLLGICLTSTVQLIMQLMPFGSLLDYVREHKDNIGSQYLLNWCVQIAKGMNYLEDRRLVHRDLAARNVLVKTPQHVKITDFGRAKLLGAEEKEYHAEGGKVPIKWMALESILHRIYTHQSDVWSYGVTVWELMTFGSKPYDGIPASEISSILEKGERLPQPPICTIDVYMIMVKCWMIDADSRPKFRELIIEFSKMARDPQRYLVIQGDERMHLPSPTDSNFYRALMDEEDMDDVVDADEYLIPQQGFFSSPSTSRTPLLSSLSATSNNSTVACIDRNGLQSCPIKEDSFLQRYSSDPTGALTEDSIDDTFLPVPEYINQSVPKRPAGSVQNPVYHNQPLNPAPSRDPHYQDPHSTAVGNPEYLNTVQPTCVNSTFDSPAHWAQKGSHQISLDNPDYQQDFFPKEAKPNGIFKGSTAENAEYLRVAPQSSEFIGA

[26] = target: Cyclin-dependent kinase 12 (Homo sapiens) (UniProt Q9NYV4); assay: Induction of CDK12 degradation in human H1975-TM cells at 50 nM incubated for 24 hrs; format: cell-based
[27] = Cmax in male Sprague-Dawley rat at 50 mg/kg, po measured after 24 hrs by LC-MS/MS analysis; format: ADME, organism-based; settings: in vivo
[28] = test system: Protein cereblon/Epidermal growth factor receptor (Homo sapiens), P00533+Q96SW2 [L858R,T790M,C797S]; assay: PROTAC activity at CRBN/EGFR L858R/T790M/C797S mutant in human H1975-TM cells assessed as induction of EGFR degradation by measuring remaining activity at 3.7 nM incubated for 24 hrs by Western blot analysis (reference value: 100%); format: cell-based
PC-9 = assay: Antiproliferative activity against human PC-9 cells harboring EGFR exon 19 deletion mutant assessed as inhibition of cell proliferation incubated for 72 hrs by CCK8 assay; format: functional, cell-based; settings: PC-9, 72 h

For `CCS(=O)(=O)n1cc(-c2nc(Nc3ccc(N4CCN(CCCCCCC(=O)Nc5cccc6c5CN(C5CCC(=O)NC5=O)C6=O)CC4)cc3)ncc2C(F)(F)F)c2ccccc21` (stereo unspecified), which IC50 [1] is on record?
Its IC50 is 43.5 nM.

And the Activity [2]?
The Activity was “Active”.

What about the “Ratio IC50” value [3] of the same compound?
Its value is 55.

And the inhibition [4]?
Its inhibition is “Dose-Dependent Effect”.

What about the MRT inf [5] of the same compound?
The MRT inf was 21.4 h.

And the Activity [6]?
The Activity was “Active”.

What about the inhibition (Mus musculus) of the same compound?
The inhibition was “Active”.

What about the Activity [7] of the same compound?
Its Activity is 6.5%.

And the AUC(0-inf) [8]?
The AUC(0-inf) was 750 ng·h/mL.

And the inhibition in vivo at 25 mg/kg [9]?
Its inhibition in vivo at 25 mg/kg is 48.1%.

And the DC50 [10]?
The DC50 was 75.4 nM.

And the Activity [11]?
Its Activity is “Dose-Dependent Effect”.

What about the bioavailability [12] of the same compound?
The bioavailability was 4.2%.

What about the AUC(0-inf) [13] of the same compound?
Its AUC(0-inf) is 1800 ng·h/mL.

And the Activity [14]?
Its Activity is 107%.

And the half-life [15]?
The half-life was 10.9 h.

And the half-life [16]?
Its half-life is 38 h.

What about the Tmax [17] of the same compound?
Its Tmax is 4.8 min.

What about the Activity [18] of the same compound?
Its Activity is 66.6%.

And the Activity [19]?
The Activity was 51.7%.

And the IC50 [20]?
Its IC50 is 10.3 nM.

And the Activity [21]?
The Activity was 65.9%.

And the inhibition [22]?
Its inhibition is “Dose-Dependent Effect”.

And the Cmax [23]?
Its Cmax is 4600 ng/mL.

What about the Activity (H1975-TM) of the same compound?
The Activity was “Active”.

And the Activity [24]?
Its Activity is 5.8%.

What about the Kd [25] of the same compound?
Its Kd is 240 nM.

What about the Activity [26] of the same compound?
The Activity was “Active”.

What about the Cmax [27] of the same compound?
Its Cmax is 57.8 ng/mL.

What about the Activity [28] of the same compound?
Its Activity is 46.6%.

And the IC50 (PC-9)?
The IC50 was 17.5 nM.
